Key:
Assay type in all cases: cell-based, rat
ELT3 cells = experiment: ELT3 cell proliferation assay (Hoechst 33258 DNA quantitation); settings: for reduction in cell proliferation compared to the untreated control / cell proliferation increase from the control: estrogen-free
Description: The Eker rat tumor-derived ELT-3 uterine leiomyoma cells were grown in DMEM medium supplemented with 10% fetal bovine serum and 1% antibiotics (containing 100 U/ml penicillin and 100 μg/ml streptomycin. The cells were maintained in the 100 mm tissue culture dishes at 37° C. air with 5% CO2 and 95% humidity. When experiments required the addition of exogenous compounds, cells were weaned by culturing for 48 h in phenol red-free medium containing 10% Charcoal-stripped fetal calf serum. For proliferation assays, cells were plated onto 24-well plates in DMEM at a density of 4000 cells/well. The cells allowed to attach overnight and then treated with E2 (10^−6 to 10^−10 M) without COMT-inhibitor or with 10 μM of COMT-inhibitor, 2-OHE2 (10^−5 to 10^−10 M) without COMT-I, or with 10 μM COMT-I, 2-OHE2, or 2-MeOHE2 (10^−5 to 10^−10 M). Control cells were treated with medium containing 10 μl of absolute ethanol. After 48 hours, the cells were harvested for the proliferation assay. For western blot analysis, the cells were seeded in 100 mm plates at final density of 2×10^6 cells/plate. […] Cells were harvested 48 hours after treatment and cell lysates were used for western blotting. A fluorometric assay, implementing Hoechst 33258 (bisbenzimide), was used for DNA quantitation. ELT3 cells (5×10^3 cells/well) were plated (described above). The cells were allowed to attach overnight at 37° C., and then the media were replaced with media containing the appropriate treatment. Control cells were treated with a 1:1000 dilution of absolute ethanol. The cells were incubated with the treatments for 48 hours, followed by cell lysis and DNA content determination using Hoechst dye solution (10 μl/100 ml distilled H2O). Fluorescence was measured (DyNA Quant 200; Hoefer Pharmacia Biotech) after excitation at 365 nm and fluorescence at 458 nm. Calf thymus DNA was used as a standard to determine DNA concentration.

VEGF = experiment: Western blot of VEGF protein expression in ELT3 cells; settings: 48 h, maximal inhibition at 10 μM
Description: (§1) The Eker rat tumor-derived ELT-3 uterine leiomyoma cells were grown in DMEM medium supplemented with 10% fetal bovine serum and 1% antibiotics (containing 100 U/ml penicillin and 100 μg/ml streptomycin. The cells were maintained in the 100 mm tissue culture dishes at 37° C. air with 5% CO2 and 95% humidity. When experiments required the addition of exogenous compounds, cells were weaned by culturing for 48 h in phenol red-free medium containing 10% Charcoal-stripped fetal calf serum. For proliferation assays, cells were plated onto 24-well plates in DMEM at a density of 4000 cells/well. The cells allowed to attach overnight and then treated with E2 (10^−6 to 10^−10 M) without COMT-inhibitor or with 10 μM of COMT-inhibitor, 2-OHE2 (10^−5 to 10^−10 M) without COMT-I, or with 10 μM COMT-I, 2-OHE2, or 2-MeOHE2 (10^−5 to 10^−10 M). Control cells were treated with medium containing 10 μl of absolute ethanol. […]
(§2) Immunoreactive proteins corresponding to VEGF, Cyclin D, Bcl-2, Bax, and β-actin were identified from total protein by western immunoblotting using specific monoclonal antibodies. […] After a 10-min spin at 10,000×g, the supernatant containing the total cell lysates were quantified using BCA Protein Assay Reagent (Pierce, Rockford, Ill.). […] The expression level of target proteins was quantitated densitometrically and normalized using β-actin expression.

cyclin D1 = experiment: Western blot of cyclin D1 protein expression in ELT3 cells; settings: 48 h, maximal inhibition at 10 μM
Description: as §1, §2

Bcl2 = experiment: Western blot of Bcl2 protein expression in ELT3 cells; settings: 48 h, maximal inhibition at 10 μM
Description: as §1, §2

Bax = experiment: Western blot of Bax protein expression in ELT3 cells; settings: 48 h
Description: as §1, §2

[1] = test system: estrogen response elements-luciferase reporter (AdERE-Luc) in ELT3 cells; experiment: AdERE-Luc reporter luciferase activity in ELT3 cells; settings: for luciferase activity reduction compared to E2 (10^−8 M) alone: plus E2 10^−8 M
Source text: Transfection of ELT3 cells with recombinant ERE-Luciferase adenovirus vector was achieved by maintaining ELT 3 cells as described above. For infection with estrogen response elements-luciferase reporter adenoviral vector (Ad ERE-Luc), the cells were allowed to grow to 60-70% confluence and then infected with Ad ERE-Luc vector at multiplicity of infection (MOI) of 100 plaque-forming units (PFU)/cell for two hours in infection medium containing 2% FCS and 1% penicillin/streptomycin. Then, the infection media were removed and replaced with regular media. The transduction efficiency of the adenoviral vectors in ELT3 cells was tested using Ad LacZ vector. β-Galactosidase expression was detected in 95-100% of ELT3 cells at 48 h after infection with Ad LacZ at a 100 PFU. Therefore, subsequent experiments were performed using similar amounts (100 PFU/cell) of recombinant Ad ERE-Luc vector.
ELT3 cells transfected with AdERE-Luc were treated with E2 and with or without COMT-I or with different concentrations of 2-OHE2 (10^−10 to 10^−6 M) with or with out COMT-I (10 μM). After 48 h incubation with chemicals, cells were harvested with 100 μl of cell lysis buffer (Promega). Luciferase activity was determined using Luciferase Assay Kit (Promega) according to the manufacturer's instructions.

[2] = COMT inhibitor 10^−5 M co-treatment, P<0.05

Structure (SMILES): COc1cc2c(cc1O)CC[C@@H]1[C@@H]2CC[C@]2(C)[C@@H](O)CC[C@@H]12 [2-MeOHE2, 2-Methoxyestradiol]
- cell proliferation reduction compared to the corresponding control (ELT3 cells; 2-MeOHE2 5×10^−7 M): 30%
- cell proliferation increase from the untreated control (ELT3 cells; 2-MeOHE2 5×10^−8 M): 31%
- cell proliferation reduction compared to the corresponding control (ELT3 cells; 2-MeOHE2 10^−5 M): 65%
- cell proliferation reduction compared to the corresponding control (ELT3 cells; 2-MeOHE2 10^−6 M): 51%
- cell proliferation reduction compared to the corresponding control (ELT3 cells; 2-MeOHE2 10^−7 M): 16%
- cell proliferation increase from the untreated control (ELT3 cells; 2-MeOHE2 10^−8 M): 24%
- cell proliferation increase from the untreated control (ELT3 cells; 2-MeOHE2 10^−9 M): 20%
- cell proliferation increase from the untreated control (ELT3 cells; 2-MeOHE2 10^−10 M): 15%
- VEGF protein expression (VEGF): concentration-dependent inhibition
- cyclin D1 protein expression (cyclin D1): concentration-dependent inhibition
- Bcl2 protein expression (Bcl2): concentration-dependent inhibition
- Bax protein expression (Bax): gradient increase

Structure (SMILES): C[C@]12CC[C@@H]3c4cc(O)c(O)cc4CC[C@H]3[C@@H]1CC[C@@H]2O [2-OHE2, 2-Hydroxyestradiol]
- reduction in cell proliferation compared to the untreated control (ELT3 cells; 2-OHE2 10^−6 M): 21%
- reduction in cell proliferation compared to the untreated control (ELT3 cells; 2-OHE2 10^−7 M): 16%
- cell proliferation increase (ELT3 cells; 2-OHE2 10^−8 M in the presence of E2 (10^−8 M)): 33%
- cell proliferation increase from the control (ELT3 cells; 2-OHE2 10^−8 M): 61%
- cell proliferation increase (ELT3 cells; 2-OHE2 10^−9 M in the presence of E2 (10^−8 M)): 24%
- cell proliferation increase from the control (ELT3 cells; 2-OHE2 10^−9 M): 54%
- cell proliferation increase (ELT3 cells; 2-OHE2 10^−10 M in the presence of E2 (10^−8 M)): 10%
- cell proliferation increase from the control (ELT3 cells; 2-OHE2 10^−10 M): 19%
- luciferase activity reduction compared to E2 (10^−8 M) alone ([1]; 2-OHE2 10^−6 M): 39%
- luciferase activity reduction compared to E2 (10^−8 M) alone ([1]; 2-OHE2 10^−7 M): 32%
- luciferase activity reduction compared to E2 (10^−8 M) alone ([1]; 2-OHE2 10^−8 M): 32%
- luciferase activity reduction compared to E2 (10^−8 M) alone ([1]; 2-OHE2 10^−10 to 10^−9 M): 30%
- AdERE-Luc activity ([1]; 2-OHE2, E2-free environment, concentration dependent): up-regulated

Structure (SMILES): O=C(c1cc(O)c(O)c([N+](=O)[O-])c1)c1ccccc1F [COMT inhibitor, R0 41-0960]
- effect on the antiproliferative effect of high dose 2-OHE2 (ELT3 cells; [2]): augmented
- effect on the proliferative effect of low dose 2-OHE2 (ELT3 cells; [2]): consistently antagonized
- effect on E2-induced cell proliferation (ELT3 cells; COMT inhibitor 10^−5 M with E2 10^−10 to 10^−6 M, P<0.05 at all estrogen concentrations): consistently inhibited
- effect on E2-induced AdERE-luciferase at higher E2 concentrations ([1]; COMT inhibitor 10^−5 M, E2 10^-6 and 10^-5 M, P=0.056 and P=0.17): less pronounced
- AdERE-luciferase compared to treatment with E2 alone ([1]; COMT inhibitor 10^−5 M, E2 10^-10 to 10^-7 M, P<0.05): significant down regulation

Structure (SMILES): C[C@]12CC[C@@H]3c4ccc(O)cc4CC[C@H]3[C@@H]1CC[C@@H]2O [E2, β-Estradiol]
- concentration of maximum effect on ELT3 proliferation (ELT3 cells; E2 alone, 48 h): 10^−8 M
- maximum up-regulation of AdERE-Luciferase ([1]; E2 10^−8 M): 6 fold

— patent publication US7960133B2, “Methods of diagnosing leiomyoma by measuring catechol-O-methyltransferase” (The Board of Regents of the University of Texas System, priority 2003, dated 2011)
